In patent US20080125432A1 (Devgen NV, priority 2004, published 2008):

How the values were obtained:
IK1 (Kir2.1) = biological target: T1, IK1 (Kir2.1) (Homo sapiens, UniProt P63252); experiment: Whole-cell patch clamp in human atrial myocytes: IK1; assay type: cell-based; conditions: n = 3 cells
T1 construct: endogenous in cells; host or cells: freshly isolated human atrial myocytes
T1 sequence (P63252 1-427): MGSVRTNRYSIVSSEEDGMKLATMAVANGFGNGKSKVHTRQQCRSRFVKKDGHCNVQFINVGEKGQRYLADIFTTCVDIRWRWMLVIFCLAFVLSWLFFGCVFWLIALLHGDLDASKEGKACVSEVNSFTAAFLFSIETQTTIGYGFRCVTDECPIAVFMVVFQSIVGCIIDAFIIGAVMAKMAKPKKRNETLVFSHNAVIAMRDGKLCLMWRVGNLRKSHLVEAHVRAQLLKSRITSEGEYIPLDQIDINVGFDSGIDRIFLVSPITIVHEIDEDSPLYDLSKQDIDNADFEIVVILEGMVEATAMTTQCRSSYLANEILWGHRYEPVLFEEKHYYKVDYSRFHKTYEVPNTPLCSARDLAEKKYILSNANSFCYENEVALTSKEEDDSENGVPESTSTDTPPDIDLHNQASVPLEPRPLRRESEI
Description: (§1) The blocking profile of the compounds of the invention is determined on the following channels of the human atrial myocytes: INa, Ito, Isus and IK1 channel currents.
(§2) Human atrial myocytes: Myocytes were prepared from specimens with grossly normal anatomical aspect, excised from hearts of patients with normal P-wave electrocardiogram, undergoing bypass surgery. Human atrial sample were obtained following approval by the ethical committee. […]
(§3) Experiments were performed at room temperature (20-25° C.) for INa and at 32-34° C. for Ito, Isus, IK1. Currents were measured using the whole-cell variant of the patch clamp method. […]
(§4) After rupture of the cell membrane to enter the whole-cell mode, current amplitude and kinetics were allowed to stabilize for 3-7 min before initiating the experimental procedure. K^+ currents recorded from human atrial myocytes were elicited by a 500 ms pulse to +60 mV from a holding potential of −50 mV for Ito and Isus. Ito was measured as a peak current amplitude whereas Isus as a current present at the end of the 500 ms voltage pulse. In addition, the area under the curve, before and after compound, were measured over the course of the pulse period. […]

Kv1.5 = biological target: T2, Kv1.5 (Homo sapiens, UniProt P22460); experiment: Whole-cell patch clamp in human atrial myocytes: Kv1.5 current calculated from Isus; assay type: cell-based
T2 construct: endogenous in cells; host or cells: freshly isolated human atrial myocytes
Description: as §1, §2, §3, §4

T2 sequence (P22460 whole entry): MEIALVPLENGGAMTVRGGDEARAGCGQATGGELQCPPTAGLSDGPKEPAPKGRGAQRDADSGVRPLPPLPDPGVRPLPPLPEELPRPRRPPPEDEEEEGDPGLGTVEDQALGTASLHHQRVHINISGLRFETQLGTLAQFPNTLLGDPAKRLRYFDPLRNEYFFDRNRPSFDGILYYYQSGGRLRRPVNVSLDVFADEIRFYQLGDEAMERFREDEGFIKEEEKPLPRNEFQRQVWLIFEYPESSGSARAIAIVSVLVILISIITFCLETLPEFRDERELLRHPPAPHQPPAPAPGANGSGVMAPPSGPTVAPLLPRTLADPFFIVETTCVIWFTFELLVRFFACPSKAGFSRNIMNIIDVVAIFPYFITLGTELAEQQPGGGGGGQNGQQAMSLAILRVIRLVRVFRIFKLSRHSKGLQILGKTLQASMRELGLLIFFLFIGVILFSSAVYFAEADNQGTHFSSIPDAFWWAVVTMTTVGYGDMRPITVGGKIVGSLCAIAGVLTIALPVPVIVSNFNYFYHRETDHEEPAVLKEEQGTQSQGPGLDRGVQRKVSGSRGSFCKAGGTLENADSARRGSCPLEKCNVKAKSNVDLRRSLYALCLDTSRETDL

- Block at 10 μM in %: IK1 (Kir2.1) (IK1 (Kir2.1)): −2.7 ± 2.0%
- Block at 10 μM in %: Kv1.5 (calculated) (Kv1.5; 10 μM, n = 3 cells, derived from subtracting the remaining current from the end of pulse current amplitude): 81.1 ± 3.7%
- IC50 (Kv1.5; dose-response analysis, Kv1.5 derived from subtracting the remaining current from the end of pulse current amplitude): 1.4 µM
Structure (SMILES): COc1ccccc1Nc1nc(C)c(C(=O)N[C@H]2CCC[C@@H]2OCc2ccccc2)s1 [Compound 68, 2-(2-methoxy-phenylamino)-4-methyl-thiazole-5-carboxylic acid (1S,2S)-2-(benzyloxycyclopent-1-yl) amide]
